Assay results from PMC10732398 (PLOS Pathogens, 2023).

Test system: ⍺4β7
Assay: SPR: inhibition by linear peptides of soluble ⍺4β7 binding to a MAdCAM-Ig surface
Details: Fig 7F, 7G
Description: To determine if this is the case, we employed an SPR -based assay. Biosensor surfaces were coated with either CD4 D1D2 or a 42 aa cyclic V2 peptide derived from the subtype E 92TH023 gp120 (cV2 92TH023). A third surface coated with MAdCAM-Ig was employed as a positive control. Soluble ⍺4β7 was passed over these surfaces. We then evaluated the capacity of staggered 15 aa peptides that span either CD4 D2 or gp120 V2 to inhibit this interaction (Fig 7A).
Fig 7 Reciprocal inhibition of gp120 V2 and CD4 binding to ⍺4β7 by D2 and V2 peptides. SPR measurements of soluble ⍺4β7 (analyte) binding to biosensor surfaces coated with CD4 D1D2, 92TH023 cyclic peptide, or MAdCAM-Ig in the absence or presence of either CD4 D2 or gp120 V2 peptides, as indicated. (A) List of overlapping 15 aa peptides corresponding to residues 157–187 of CD4 and residues 158–192 of gp120 V2 (subtype B consensus sequence). (B) Binding of ⍺4β7 to sCD4 D1D2 +/- CD4 D2 peptides. X-axis indicates ⍺4β7 mass bound (RU) at the end of the association phase. (C) Binding of ⍺4β7 to 92TH023 +/- gp120 V2 peptides. (D) Binding of ⍺4β7 to sCD4 D1D2 +/- gp120 V2 peptides. (E) Binding of ⍺4β7 to 92TH023 +/- CD4 D2 peptides. […]
Experiments were performed using a Biacore 3000 instrument (Cytiva Life Sciences) using CM4 or CM5 sensor chips. The data were evaluated using BIAevaluation 4.1.1 software (Cytiva Life Sciences). […]

Sequence: QKKVEFKIDIVVLA [CD4 P42, linear CD4 D2 peptide, residues 165-178, G β-strand]
- inhibition of MAdCAM-Ig binding to ⍺4β7 (in words): inhibit MAdCAM-Ig binding to ⍺4β7
